According to article PMC7366380, “Discovery of a Potent and Selective Covalent Inhibitor and Activity-Based Probe for the Deubiquitylating Enzyme UCHL1, with Antifibrotic Activity” (Journal of the American Chemical Society, 2020):
“And” between values parts separate entries of the source, which are not always exact repeats. Equal entries are not always repeated. Values belong to the compound of their own block, whether it stands above or below them.

Key:
[1] = target: T1, UCHL1 (Homo sapiens, UniProt P09936); assay: UCHL1 inhibitor kinetic analysis (Ub-AMC fluorescence intensity); format: biochemical; design: rapidly targets endogenous UCHL1 in cells; endogenous in cells; host or cells: HEK293; settings: UCHL1 3 nM, Ub-AMC 130 nM; read-out: kobs/I
T1 sequence (P09936 1-223): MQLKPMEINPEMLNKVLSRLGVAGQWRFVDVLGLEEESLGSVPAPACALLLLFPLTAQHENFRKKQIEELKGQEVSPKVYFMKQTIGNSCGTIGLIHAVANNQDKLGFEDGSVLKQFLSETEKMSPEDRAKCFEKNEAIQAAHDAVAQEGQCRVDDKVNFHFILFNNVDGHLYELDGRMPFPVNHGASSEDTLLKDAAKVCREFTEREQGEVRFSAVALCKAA

[2] = target: FGFR2 (Homo sapiens, UniProt P21802); assay: In-cell proteome-wide competitive ABPP, HEK293: FGFR2; settings: HEK293, compound 60 min, then 2 (20 nM) 10 min
[3] = target: DUBs and other proteins in HEK293 cells (Homo sapiens, UniProt Q93009); assay: Quantitative chemical proteomic profiling of ABP 2 in HEK293 cells: other DUBs and proteins across the proteome; settings: USP7, listed as ABP 2
[4] = target: T2, endogenous UCHL1 (Homo sapiens, UniProt P09936); assay: ABP 2 target engagement in EA.hy926 and A549 cells (in-gel fluorescence, immunoblot); format: cell-based; settings: 3 h
T2 construct: endogenous in cells; host or cells: EA.hy926 and A549
Excerpt: Figure S13. ABP 2 target engagement in A549 and EA.hy926 cells. […]
labeled proteins ligated to AzTB capture reagent. (a) Labeled proteins were separated by SDS-PAGE and visualised by in-gel fluorescence. (b) Labeled proteins were enriched by NeutrAvidin magnetic beads. Total lysate (TL), supernatant (SN) an d pulldown (PD) samples […]
Preparation of UCHL1 overexpression cell lysates
After cell lysis and CuAAC […]
relative to the sample volume.
SDS-PAGE and in-gel fluorescence imaging
The protein samples were separated
Biotin affinity enrichment for immunoblot analysis […]
re-suspended as described previously.
Proteins were separated by SDS-
Sample preparation for MS-based proteomic analysis

[5] = target: EIF3F (Homo sapiens, UniProt O00303); assay: Quantitative chemical proteomic profiling of ABP 2 in HEK293 cells: EIF3F; settings: for Log2 reporter intensity values (Log2FC, DMSO substract): EIF3F, listed as ABP 2
[6] = target: PSMD14 (Homo sapiens, UniProt O00487); assay: Quantitative chemical proteomic profiling of ABP 2 in HEK293 cells: PSMD14; settings: for Log2 reporter intensity values (Log2FC, DMSO substract): PSMD14, listed as ABP 2
[7] = target: T1, UCHL1; assay: Quantitative chemical proteomic profiling of ABP 2 in HEK293 cells (AzRB enrichment, TMT): UCHL1; settings: for Log2 reporter intensity values (Log2FC, DMSO substract): UCHL1, listed as ABP 2
[8] = target: EIF3H (Homo sapiens, UniProt O15372); assay: Quantitative chemical proteomic profiling of ABP 2 in HEK293 cells: EIF3H; settings: for Log2 reporter intensity values (Log2FC, DMSO substract): EIF3H, listed as ABP 2
[9] = tested on: UCHL3, UCHL5, and DUBs from other families; assay: ABP 2 labeling in HEK293 cells, pulldown and immunoblotting of other DUBs; settings: HEK293, 1 h, pulldown, immunoblot
[10] = target: fibroblast growth factor receptor 2 (FGFR2) (Homo sapiens, UniProt P21802); assay: Quantitative chemical proteomic profiling of ABP 2 in HEK293 cells: FGFR2; settings: HEK293, 20 nM
[11] = target: T3, UCHL3 (Homo sapiens, UniProt P15374); assay: Quantitative chemical proteomic profiling of ABP 2 in HEK293 cells: UCHL3; settings: for Log2 reporter intensity values (Log2FC, DMSO substract): UCHL3, listed as ABP 2
T3 sequence (P15374 1-230): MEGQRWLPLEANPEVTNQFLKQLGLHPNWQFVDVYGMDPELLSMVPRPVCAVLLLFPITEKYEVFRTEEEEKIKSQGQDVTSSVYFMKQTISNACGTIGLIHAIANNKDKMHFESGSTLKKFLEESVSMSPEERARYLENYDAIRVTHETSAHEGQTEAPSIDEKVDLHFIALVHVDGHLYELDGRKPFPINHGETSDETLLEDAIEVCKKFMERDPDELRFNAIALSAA

[12] = target: T1, UCHL1; assay: ABP 2 labeling in HEK293 cells, AzTB ligation, in-gel fluorescence; settings: HEK293, time course
[13] = target: T1, UCHL1; settings: compared with 1
[14] = 200 nM, 180 min, replicates A,C
[15] = HEK293, 20 nM vs DMSO, 1 h, enrichment, TMT, n=3
[16] = HEK293, 200 nM vs DMSO, 1 h, enrichment, TMT, n=3
[17] = HEK293, 2 nM vs DMSO, 1 h, enrichment, TMT, n=3

DUBs and other proteins in HEK293 cells, sequence (Q93009 whole entry): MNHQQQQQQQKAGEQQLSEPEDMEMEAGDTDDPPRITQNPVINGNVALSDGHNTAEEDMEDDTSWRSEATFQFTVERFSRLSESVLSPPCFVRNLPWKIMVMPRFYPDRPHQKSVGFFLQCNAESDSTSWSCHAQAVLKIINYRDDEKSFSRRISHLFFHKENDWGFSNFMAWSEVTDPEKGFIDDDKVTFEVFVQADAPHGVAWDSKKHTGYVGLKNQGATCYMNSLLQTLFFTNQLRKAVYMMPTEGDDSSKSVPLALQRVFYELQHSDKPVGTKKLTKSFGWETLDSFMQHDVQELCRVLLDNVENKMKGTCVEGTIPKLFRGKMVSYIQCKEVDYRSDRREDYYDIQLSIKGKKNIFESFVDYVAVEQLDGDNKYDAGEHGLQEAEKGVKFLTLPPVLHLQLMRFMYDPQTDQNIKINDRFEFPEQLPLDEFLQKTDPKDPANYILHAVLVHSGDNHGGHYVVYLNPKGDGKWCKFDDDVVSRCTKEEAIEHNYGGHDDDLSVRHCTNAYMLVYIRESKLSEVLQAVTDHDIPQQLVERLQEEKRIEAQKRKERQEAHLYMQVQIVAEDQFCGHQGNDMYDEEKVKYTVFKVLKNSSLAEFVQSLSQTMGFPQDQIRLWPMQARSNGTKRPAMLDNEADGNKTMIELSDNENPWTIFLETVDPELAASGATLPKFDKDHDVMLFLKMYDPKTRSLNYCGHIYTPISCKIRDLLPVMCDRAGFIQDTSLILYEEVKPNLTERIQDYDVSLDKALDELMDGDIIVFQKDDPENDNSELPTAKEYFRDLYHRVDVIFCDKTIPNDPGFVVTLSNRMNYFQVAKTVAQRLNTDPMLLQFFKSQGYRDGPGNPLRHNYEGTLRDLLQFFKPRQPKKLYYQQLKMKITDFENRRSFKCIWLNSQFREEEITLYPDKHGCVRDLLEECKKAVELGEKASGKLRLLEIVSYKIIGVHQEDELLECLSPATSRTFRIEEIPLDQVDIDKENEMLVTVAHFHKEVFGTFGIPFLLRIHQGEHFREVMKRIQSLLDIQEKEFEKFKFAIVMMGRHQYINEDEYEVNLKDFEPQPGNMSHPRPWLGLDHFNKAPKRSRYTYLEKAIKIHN
FGFR2, sequence (P21802 22-821): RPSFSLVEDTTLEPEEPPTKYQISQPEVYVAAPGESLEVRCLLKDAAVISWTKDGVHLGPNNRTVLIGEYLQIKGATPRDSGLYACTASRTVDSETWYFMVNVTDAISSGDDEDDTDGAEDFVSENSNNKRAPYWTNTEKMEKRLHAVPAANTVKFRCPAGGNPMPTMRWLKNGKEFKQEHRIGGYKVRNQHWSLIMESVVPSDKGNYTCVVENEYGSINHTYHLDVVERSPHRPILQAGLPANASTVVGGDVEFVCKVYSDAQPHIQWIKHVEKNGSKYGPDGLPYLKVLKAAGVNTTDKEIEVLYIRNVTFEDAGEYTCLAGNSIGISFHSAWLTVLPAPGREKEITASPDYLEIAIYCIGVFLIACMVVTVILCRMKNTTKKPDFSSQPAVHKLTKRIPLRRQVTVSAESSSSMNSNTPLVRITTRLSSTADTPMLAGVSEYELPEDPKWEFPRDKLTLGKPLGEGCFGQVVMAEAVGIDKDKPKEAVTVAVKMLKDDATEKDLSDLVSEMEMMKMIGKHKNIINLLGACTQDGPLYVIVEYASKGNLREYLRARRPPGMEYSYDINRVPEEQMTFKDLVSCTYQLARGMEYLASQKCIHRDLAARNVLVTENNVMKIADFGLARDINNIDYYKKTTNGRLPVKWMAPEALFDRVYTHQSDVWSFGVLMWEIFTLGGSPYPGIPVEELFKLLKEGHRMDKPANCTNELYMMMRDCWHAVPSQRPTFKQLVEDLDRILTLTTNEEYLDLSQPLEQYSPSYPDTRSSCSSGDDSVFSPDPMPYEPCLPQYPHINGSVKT
fibroblast growth factor receptor 2 (FGFR2), sequence (P21802 22-821): as above

kinact/KI [1]: 7400 M⁻¹ s⁻¹
FGFR2 response in proteome-wide competitive ABPP [2]: responds
Compound: N#CN1CCC[C@H]1C(=O)N1CCc2c(-c3c[nH]c4ncccc34)cccc21 [Compound 1]

Log2 reporter intensity values (Log2FC, DMSO substract) ([3]; 2 nM, 60 min, replicates A-C): 0.06357 and 0.017 and -0.3747
Log2 reporter intensity values (Log2FC, DMSO substract) ([3]; 20 nM, 10 min, replicates B,C): -0.07969 and -0.2354
Log2 reporter intensity values (Log2FC, DMSO substract) ([3]; 20 nM, 60 min, replicates A-C): 0.02327 and -0.09058 and -0.2812
Log2 reporter intensity values (Log2FC, DMSO substract) ([3]; 20 nM, 180 min, replicates A-C): -0.1814 and -0.1595 and -0.1999
Log2 reporter intensity values (Log2FC, DMSO substract) ([3]; 200 nM, 10 min, replicates B,C): 0.1137
Log2 reporter intensity values (Log2FC, DMSO substract) ([3]; 200 nM, 60 min, replicates A-C): -0.04347 and 0.1524 and 0.1409
Log2 reporter intensity values (Log2FC, DMSO substract) [3, 14]: -0.01106 and 0.3029
profiling of endogenous UCHL1 activity in other cell types [4]: excellent selectivity
Log2 reporter intensity values (Log2FC, DMSO substract) ([5]; 2 nM, 60 min, replicates A-C): 0.2006 and 0.08743 and 0.3363
Log2 reporter intensity values (Log2FC, DMSO substract) ([5]; 20 nM, 10 min, replicates B,C): 0.2292 and 0.2562
Log2 reporter intensity values (Log2FC, DMSO substract) ([5]; 20 nM, 60 min, replicates A-C): 0.2037 and 0.07421 and -0.06904
Log2 reporter intensity values (Log2FC, DMSO substract) ([5]; 20 nM, 180 min, replicates A-C): 0.329 and 0.1016 and 0.09094
Log2 reporter intensity values (Log2FC, DMSO substract) ([5]; 200 nM, 10 min, replicates B,C): 0.1208 and 0.2271
Log2 reporter intensity values (Log2FC, DMSO substract) ([5]; 200 nM, 60 min, replicates A-C): 0.222 and -0.03463 and 0.3157
Log2 reporter intensity values (Log2FC, DMSO substract) [5, 14]: 0.2814 and 0.1468
Log2 t-test Difference, EIF3F, 20 nM [5, 15]: 0.06962
Log2 t-test Difference, EIF3F, 200 nM [5, 16]: 0.1677
Log2 t-test Difference, PSMD14, 2 nM [6, 17]: 0.06988
Log2 t-test Difference, PSMD14, 20 nM [6, 15]: -0.004272
Log2 t-test Difference, PSMD14, 200 nM [6, 16]: 0.1265
Log2 reporter intensity values (Log2FC, DMSO substract) ([6]; 2 nM, 60 min, replicates A-C): 0.2334 and 0.06155 and -0.08529
Log2 reporter intensity values (Log2FC, DMSO substract) ([6]; 20 nM, 10 min, replicates B,C): -0.01968 and 0.08775
Log2 reporter intensity values (Log2FC, DMSO substract) ([6]; 20 nM, 60 min, replicates A-C): -0.03468 and 0.06905 and -0.04719
Log2 reporter intensity values (Log2FC, DMSO substract) ([6]; 20 nM, 180 min, replicates A-C): 0.05966 and 0.0953 and 0.01379
Log2 reporter intensity values (Log2FC, DMSO substract) ([6]; 200 nM, 10 min, replicates B,C): 0.3381 and 0.09077
Log2 reporter intensity values (Log2FC, DMSO substract) ([6]; 200 nM, 60 min, replicates A-C): 0.2255 and 0.1628 and -0.008927
Log2 reporter intensity values (Log2FC, DMSO substract) [6, 14]: 0.02414 and 0.2255
Log2 t-test Difference, UCHL1, 2 nM [7, 17]: 1.208
Log2 t-test Difference, UCHL1, 20 nM [7, 15]: 2.871
Log2 t-test Difference, UCHL1, 200 nM [7, 16]: 3.757
UCHL1 enrichment (chemical proteomics) ([7]; HEK293, 2, 20 or 200 nM, 10, 60 or 180 min): significantly enriched
Log2 reporter intensity values (Log2FC, DMSO substract) ([7]; 2 nM, 60 min, replicates A-C): 1.19 and 1.075
Log2 reporter intensity values (Log2FC, DMSO substract) ([7]; 20 nM, 10 min, replicates B,C): 2.249 and 2.237
Log2 reporter intensity values (Log2FC, DMSO substract) ([7]; 20 nM, 60 min, replicates A-C): 3.049 and 2.943 and 2.622
Log2 reporter intensity values (Log2FC, DMSO substract) ([7]; 20 nM, 180 min, replicates A-C): 2.8835 and 2.817 and 2.539
Log2 reporter intensity values (Log2FC, DMSO substract) ([7]; 200 nM, 10 min, replicates B,C): 3.8701 and 3.284
Log2 reporter intensity values (Log2FC, DMSO substract) ([7]; 200 nM, 60 min, replicates A-C): 3.775 and 4.082 and 3.414
Log2 reporter intensity values (Log2FC, DMSO substract) [7, 14]: 3.588 and 3.369
Log2 reporter intensity values (Log2FC, DMSO substract) ([8]; 2 nM, 60 min, replicates A-C): 0.03927 and 0.1861 and 0.1127
Log2 reporter intensity values (Log2FC, DMSO substract) ([8]; 20 nM, 10 min, replicates B,C): 0.003189 and 0.05275
Log2 reporter intensity values (Log2FC, DMSO substract) ([8]; 20 nM, 60 min, replicates A-C): 0.08479 and -0.05372 and 0.1466
Log2 reporter intensity values (Log2FC, DMSO substract) ([8]; 20 nM, 180 min, replicates A-C): -0.0501 and -0.006928 and -0.004662
Log2 reporter intensity values (Log2FC, DMSO substract) ([8]; 200 nM, 10 min, replicates B,C): 0.1905 and -0.004432
Log2 reporter intensity values (Log2FC, DMSO substract) ([8]; 200 nM, 60 min, replicates A-C): 0.08499 and -0.02572 and 0.1313
Log2 reporter intensity values (Log2FC, DMSO substract) [8, 14]: -0.03275 and 0.07608
Log2 t-test Difference, EIF3H, 2 nM [8, 17]: 0.1127
Log2 t-test Difference, EIF3H, 20 nM [8, 15]: 0.05921
Log2 t-test Difference, EIF3H, 200 nM [8, 16]: 0.06352
FGFR2 enrichment (chemical proteomics) [10]: significantly enriched
UCHL3 enrichment (chemical proteomics) ([11]; HEK293, higher concentrations): marginal enrichment
Log2 reporter intensity values (Log2FC, DMSO substract) ([11]; 2 nM, 60 min, replicates A-C): 0.05364 and -0.07312 and 0.4093
Log2 reporter intensity values (Log2FC, DMSO substract) ([11]; 20 nM, 10 min, replicates B,C): 0.1568 and 0.3164
Log2 reporter intensity values (Log2FC, DMSO substract) ([11]; 20 nM, 60 min, replicates A-C): 0.5413 and 1.009 and 0.8836
Log2 reporter intensity values (Log2FC, DMSO substract) ([11]; 20 nM, 180 min, replicates A-C): 1.082 and 1.256 and 0.9512
Log2 reporter intensity values (Log2FC, DMSO substract) ([11]; 200 nM, 10 min, replicates B,C): 0.8647 and 0.7273
Log2 reporter intensity values (Log2FC, DMSO substract) ([11]; 200 nM, 60 min, replicates A-C): 1.566 and 2.128 and 1.659
Log2 reporter intensity values (Log2FC, DMSO substract) [11, 14]: 2.355 and 2.225
time to maximal labeling [12]: ≤ 60 min
Compound: C#Cc1cnc2[nH]cc(-c3cccc4c3CCN4C(=O)[C@@H]3CCCN3C#N)c2c1 [Compound 2]
labeling of UCHL3, UCHL5, and DUBs from other families [9]: minimal or no detectable labeling

fold less active than 1 (UCHL1 FP assay) [13]: > 1000 fold
Compound: N#CN1CCC[C@@H]1C(=O)N1CCc2c(-c3c[nH]c4ncccc34)cccc21 [Compound 3]
